Experimental data as given in patent US20260001910A1, “PEPTIDES AND USES THEREOF” (PreveCeutical Medical Inc., priority 2021, published 2026).

Assays:
[1] = target: T1, recombinant MMP-2 (Homo sapiens, UniProt P08253); test: MMP-2 Inhibitor Screening Assay Kit (colorimetric); type: biochemical; conditions: lower % = higher inhibitory activity
T1 construct: purchased ab139446
Procedure: MMP-2 is an important target for inhibitor screening due to its involvement in cancer growth, angiogenesis, and metastasis. The MMP-2 screening assay was carried out with a commercially available MMP-2 Inhibitor Screening Assay Kit (Colorimetric, Catalog: ab139446) based on the manufacturers protocol. This assay is based on quantification of recombinant MMP-2 activity using a colorimetric assay (MMP-2 degrades a chromogenic substrate). The assay provides NNGH (N-isobutyl-N-(4-methoxyphenylsulfonyl) glycyl hydroxamic acid), a small molecule inhibitor, as a positive control (NNGH). […] Each determination was run in duplicate.
Briefly, MMP Substrate and MMP Inhibitor were warmed to room temperature to thaw DMSO. MMP Inhibitor (NNGH), MMP-2 substrate and MMP-2 enzyme were diluted with assay buffer to required concentration. 20 μL of MMP-2 enzyme and MMP-2 inhibitor (peptides, Chlorotoxin and NNGH) was added, then 50 μL of assay buffer was added and the reaction mixture incubated at 37° C. for 1 h. After incubation, 10 μL of MMP Substrate was added to start reaction. The reactions were continuously read at 412 nm in a microplate reader. Data was recorded at 1 min. time intervals for 10 to 20 min. The data as was plotted as optical density (OD) versus time for each sample. The reaction velocity (V) was obtained in OD/min: determine the slope of a line fit to the linear portion of the data plot using an appropriate routine. Then using the equation above the inhibitor % activity remaining was calculated. The control was without inhibitor.

[2] = test system: GBM cells (U251, U87 and 081024 cells); test: Binding/internalization of biotinylated peptide, confocal fluorescence microscopy; type: cell-based, human; conditions: 0.5 mM labelled peptide
Procedure: FIG. 1 provides fluorescence staining of biotinylated peptide SEQ ID NO. 1 after 6 hours cell exposure (U251 cells and U87 cells) or 5 min cell exposure (081024 oncospheres). Upper right-hand panel: U251 cells, middle right-hand panel, U87 cells, lower right-hand panel, 081024 oncospheres. No peptide negative control (left side of each panel). […] Nuclei appear blue due to DAPI staining. Images were captured using a 100X objective and a Olympus FV3000 confocal microscope
To document binding and/or internalization of the peptides to the cells, biotinylated derivatives of the peptides were synthesised to allow detection by Cy3-conjugated avidin staining using confocal fluorescence microscopy.
U87 and U251 cells were seeded on 8-chamber polystyrene vessel tissue culture-treated glass slides (Falcon). After 24h, cells were incubated with biotinylated peptide (0.5 mM) containing serum free media for 5 min and 6 h. […] Cells were then rinsed and mounted on microscopic slides with DAPI-containing mounting medium for confocal fluorescence imaging analysis.
The ability of SEQ ID NO. 41 to bind and/or enter GBM cells was evaluated. In a first set of experiments, adherent GBM cells and non-adherent GBM cells were exposed to 0.5 mM labelled peptide for 6 h, processed and analysed by confocal immunofluorescence microscopy. […]

[3] = test system: U87 cells; conditions: U87, 1 μM, 24h
Procedure: (§1) This assay, described in more detail below, is an in vitro surrogate for measurement of the in vivo invasion by tumour cells of their environment.
(§2) The cell invasion assay employs a simplified Boyden chamber-like design that consists of two chambers separated by a filter (an 8 μm polycarbonate (PC) membrane) coated with basement membrane or different extracellular matrix components. The cell suspension is placed in the top chamber and incubated in the presence of test media containing specific chemo-attractants in the bottom chamber. Cells migrate from the top chamber to the bottom of the filter by degrading the coating over the filter pores. Detection of cell invasion is quantified using Calcein AM. Cell dissociation/Calcein AM solution is placed in the bottom chamber to dissociate the migrating cells from the filter. Calcein AM is internalized by the cells, and intracellular-esterases cleave the aceto-methylester (AM) moiety.
(§3) The filter was coated with PathClear® growth factor reduced BME.
(§4) Cell invasion was determined using CultureCoat® 96 Well Medium BME Cell Invasion assay. Briefly, the cells were pre-starved 24h before harvest. Then seeding 25,000 per well of cell in the upper chamber with serum free medium together different concentration of peptide. […] After 24h incubation, the invading cells were measured by Calcein AM and calculated based on standard curve.

[4] = test system: U251 cells; conditions: U251, 1 μM, 24h
Procedure: as §1, §2, §3, §4

[5] = test system: 081024 oncospheres; conditions: 081024, 1 μM, 24h

T1 sequence (P08253 110-446 limits assumed): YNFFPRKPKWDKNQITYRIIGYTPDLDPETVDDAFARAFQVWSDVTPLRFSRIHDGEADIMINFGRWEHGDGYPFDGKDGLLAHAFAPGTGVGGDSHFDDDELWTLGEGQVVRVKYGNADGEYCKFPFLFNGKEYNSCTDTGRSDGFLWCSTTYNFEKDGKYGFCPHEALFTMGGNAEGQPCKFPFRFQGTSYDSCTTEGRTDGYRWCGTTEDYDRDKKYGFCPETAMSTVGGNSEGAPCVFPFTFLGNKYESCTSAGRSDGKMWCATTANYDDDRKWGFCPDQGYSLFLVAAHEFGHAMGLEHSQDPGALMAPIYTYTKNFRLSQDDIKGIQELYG

Compound: COc1ccc(S(=O)(=O)N(CC(=O)NO)CC(C)C)cc1 [NNGH, N-isobutyl-N-(4-methoxyphenylsulfonyl) glycyl hydroxamic acid, reference compound]
- % inhibition (MMP-2 inhibitor screening) ([1]; 1.3 μM): 2.29%

Compound: Biotin-tyr-gly-gly-phe-leu-arg-arg [SEQ ID NO. 41]
- binding/entry into GBM cells, Cy3 staining ([2]; 5 minutes exposure, U251, U87 and 081024 cells): already internalised
- binding/entry into GBM cells, Cy3 staining ([2]; 6 h exposure): bright intracellular fluorescence

Compound: Chlorotoxin
- % inhibition (MMP-2 inhibitor screening) ([1]; 1 μM): 67.94%
- Invasion Inhibition Index (%) [3]: 39.5%
- Invasion Inhibition Index (%) [4]: 28.50%
- Invasion Inhibition Index (%) [5]: 45.0%
